Laboratory results published in patent publication US11309064B2, “Individualized dosing technique with multiple variables” (priority 2017, dated 2022).

Columns and labels:
INR [1] = assay: INR lab value at clinic visits under Warfarin (Example 4); type: in vivo, patient
INR [2] = assay: INR and individual INR/Warfarin dose equation (Examples 7 and 8)
[3] = system: patients with nonvalvular AF; conditions: long-term anticoagulation therapy; cited from earlier work
INR [4] = assay: Software readout, predicted INR for a Warfarin dose (Example 5); set-up: species or system patient; conditions: 5 mg by mouth every 24 hours
From the text: The nurse takes their INR lab value and enters it into a software program. The health care provider has the software open on a computer or a hand held device. Then the provider asks the patient the relevant questions, does a physical exam and inputs this into the electronic form.

plasma proteins = conditions: cited from earlier work
blood glucose = assay: Software readout, predicted blood glucose for an insulin dose (Example 6); set-up: species or system patient; conditions: 100 units Subcutaneous every 24 hrs
From the text: A diabetes patient tells the health care provider their average daily blood glucose value. A health care provider can do this over a phone or via the Internet. A physical exam, review of biological systems, and medicine reconciliation is done and the information is put into software program. Then, for example, the software may have readout of “Given the data collected, the dose of 100 units of insulin Subcutaneous every 24 hrs will result in blood glucose of between 90-150 with a 50%-90% possibility if compliant with medications and no other variables change.”

Molecule: CC(=O)CC(c1ccccc1)c1c(O)c2ccccc2oc1=O (racemic) [Warfarin]
- INR (INR [1]; 1 month later on 5 mg Warfarin, Lasix 40 mg every 24 hours, over 3 glasses of wine last evening): 4.3
- INR (INR [1]; 1 week on 7 mg Warfarin by mouth everyday, with HCTZ 25 mg, Doxycycline 100 mg every 12 hours, some aspirin): 3.4
- INR (INR [1]; 2 weeks after restart at 5 mg Warfarin, Lasix 60 mg a day, 73 kg, antidepressant): 2.3
- INR (INR [1]; 2 weeks on 5 mg Warfarin every day, HCTZ 25 mg only): 2.5
- INR (INR [2]; Lasix 30 mg/day and Warfarin 7.5 mg/day): ~3
- INR (INR [2]; Warfarin 7.5 mg, 1 week after start of amoxicillin 500 mg / clavulanate 250 mg 3 times a day): 2.5
- INR (INR [2]; Warfarin 7.5 mg, next office visit after amoxicillin/clavulanate): 6
- INR (INR [2]; a week later again): 9
- observed INR (INR [2]; after Lasix increased to 60 mg/day, Warfarin dose from earlier formula): 4-5
- INR (INR [2]; after Warfarin stopped, blood transfusion and a dose of Vitamin K): 3.5
- reduction of the risk for ischemic stroke [3]: approximately 68%
- predicted INR (INR [4]): 2-3

Molecule: CC/C(=C(\c1ccccc1)c1ccc(OCCN(C)C)cc1)c1ccccc1 [Tamoxifen]
- protein binding (plasma proteins): Tamoxifen and Warfarin are highly protein bound. Tamoxifen

Molecule: COc1cc([C@@H]2c3cc4c(cc3[C@@H](O[C@@H]3O[C@@H]5CO[C@@H](C)O[C@H]5[C@H](O)[C@H]3O)[C@H]3COC(=O)[C@H]23)OCO4)cc(OC)c1O [etoposide]
- protein binding (plasma proteins): Highly protein bound. Interacts with other protein-bound drugs

Molecule: CC(=O)O[C@H]1C(=O)[C@@]2(C)[C@H]([C@H](OC(=O)c3ccccc3)[C@]3(O)C[C@H](OC(=O)[C@H](O)[C@@H](NC(=O)c4ccccc4)c4ccccc4)C(C)=C1C3(C)C)[C@]1(OC(C)=O)CO[C@@H]1C[C@@H]2O [paclitaxel]
- protein binding (plasma proteins): Highly protein bound. Interacts with other protein-bound drugs

Molecule: insulin
- predicted blood glucose (blood glucose): 90-150
